Results on eight compounds are retold here after patent publication US10449208B2, “Antiviral prodrugs of tenofovir” (Merck Sharp & Dohme Corp., priority 2016, dated 2019).

One data set deals with HIV-1 (H9/IIIB strain). The data set is described as follows: Multiple round HIV-1 infection assay (Viking assay) in MT4-GFP cells. It counts as cell-based. To be noted: Human immunodeficiency virus 1, IIIB, MT4-GFP cells infected with HIV-1 H9/IIIB, inhibition of reproductive ratio R0. In outline:
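MT4-gag-GFP cells infected overnight with HIV-1 H9/IIIB at MOI ~0.01, then incubated with compound (10-point 3-fold dilutions, typically 8.4 μM–0.42 nM) in RPMI with 10% or 50% normal human serum. Green cells counted at ~48 and ~72 h; IC50 from inhibition of reproductive ratio R0, 4-parameter fit.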

A short description of data set [1]: Prodrug stability assay in bio-relevant media (FaSSIF with Pancreatin, simulated gastrointestinal tract conditions). It counts as in vitro ADME. As to conditions: % parent prodrug remaining at 5 h vs 0 h, 37° C., 0.5 mg/mL Pancreatin in FaSSIF, HPLC area ratio. The protocol: Prodrug Stability Assay in Bio-Relevant Media
The following assay was employed to evaluate the stability of the prodrugs in simulated gastrointestinal tract conditions. Preparation of fasted state simulated intestinal fluid (FaSSIF) using Phares SIF Powder was carried out according to protocols from Phare Drug Delivery AG (Baselland, Switzerland). For sample preparation, 10 μL stock solutions (10 mM) of prodrug substance in DMSO was added to 990 μL of 0.5 mg/mL Pancreatin solution (Fisher CAS#8049-47-6) in FaSSIF. Two samples were prepared for each compound at initial. If the sample was clear solution at the beginning, ran one sample directly as initial by HPLC; if the sample was not clear at starting, diluted the sample by 100% ACN. Put the other sample under 37° C. and observed the sample at 5 h time-point. At 5 h time point, if the sample was clear solution then performed HPLC analysis directly; if it was not clear solution, diluted the sample by 100% ACN and assayed by HPLC. All the samples were vortexed for 3 min and observed before injection. For the diluted samples, the area will be multiplied by a factor when data analysis. The analysis was carried out with an Agilent 1100 series HPLC with autosampler. The column was usually a Poroshell 120 EC -C18, 4.6×50 mm, 2.7 μm. The flow rate was 1.8 mL/min, and the injection volume was 5 or 10 μL. UV detection was in the range 210-400 nm. The mobile phase consisted of solvent A (water plus 10 mM tetrabutylammonium bromide) and solvent B (acetonitrile) with a gradient of 90% solvent A at 0 min changing to 95% solvent B over 6 min, maintained for 1.5 min, then reverting to 90% solvent A over 1.6 min. The area of the parent in prodrug at 5h time point was divided by the area of the parent in prodrug at 0 h time point, to generate the % claimed parent ratio, which are summarized in Table 2 for GI Tract stability.

The mark [2] stands for this setting: 10% normal human serum, read-out: Viking, IC50 (10% NHS).
Setting [3] is: 50% normal human serum, read-out: Viking, IC50 (50% NHS).

By IC50 is commonly meant the concentration that inhibits the measured activity by half.

Where two headings read alike, the source gives them in different places.

For `CCCCCOC(=O)C(C)(C)NP(=O)(CO[C@H](C)Cn1cnc2c(N)ncnc21)OCC(=O)OC1CCCC1` (stereo partly drawn) [Example 36, Pentyl 2-((((((R)-1-(6-amino-9H-purin-9-yl)propan-2-yl)oxy)methyl)(2-(cyclopentyloxy)-2-oxoethoxy)phosphoryl)amino)-2-methylpropanoate], the figures for the IC50 in the data set with HIV-1 (H9/IIIB strain) (setting [2]) and in the data set with HIV-1 (H9/IIIB strain) (setting [3]) were 2.39 nM and 6.04 nM, respectively. In data set [1], the “GI Tract stability” value is recorded as 88.87%.
Consider `CCCOC(=O)C(C)(C)NP(=O)(CO[C@H](C)Cn1cnc2c(N)ncnc21)OCC(=O)OC1CCCC1` (stereo partly drawn) [Example 38, Propyl 2-((((((R)-1-(6-amino-9H-purin-9-yl)propan-2-yl)oxy)methyl)(2-(cyclopentyloxy)-2-oxoethoxy)phosphoryl)amino)-2-methylpropanoate], for which the IC50 stood at 2.68 nM in the data set with HIV-1 (H9/IIIB strain) (setting [2]) and 6.26 nM in the data set with HIV-1 (H9/IIIB strain) (setting [3]). The “GI Tract stability” value in data set [1] is 96.64%.
The like results for `CC(C)OC(=O)[C@H](C)OP(=O)(CO[C@H](C)Cn1cnc2c(N)ncnc21)NC(C)(C)C(=O)OCc1ccccc1` (stereo partly drawn) [Example 41, Benzyl 2-((((((R)-1-(6-amino-9H-purin-9-yl)propan-2-yl)oxy)methyl)(((S)-1-isopropoxy-1-oxopropan-2-yl)oxy)phosphoryl)amino)-2-methylpropanoate] were, in that order, 2.87 nM, 12.5 nM and 58.50%.
For `CC(C)OC(=O)COP(=O)(CO[C@H](C)Cn1cnc2c(N)ncnc21)NC1(C(=O)OC(C)C)CCCC1` (stereo partly drawn) [Example 45, Isopropyl 1-((((((R)-1-(6-amino-9H-purin-9-yl)propan-2-yl)oxy)methyl)(2-isopropoxy-2-oxoethoxy)phosphoryl)amino) cyclopentane-1-carboxylate], the IC50 with HIV-1 (H9/IIIB strain) (setting [2]) amounted to 15.6 nM; in the data set on HIV-1 (H9/IIIB strain) (setting [3]) it was 62.6 nM. In addition, in data set [1], the “GI Tract stability” value is listed as 99.44%.
On to `CC(C)OC(=O)COP(=O)(CO[C@H](C)Cn1cnc2c(N)ncnc21)NC1(C(=O)OC(C)C)CC1` (stereo partly drawn) [Example 46, Isopropyl 1-((((((R)-1-(6-amino-9H-purin-9-yl)propan-2-yl)oxy)methyl)(2-isopropoxy-2-oxoethoxy)phosphoryl)amino) cyclopropane-1-carboxylate], for which the IC50 is 386 nM with HIV-1 (H9/IIIB strain) (setting [2]) and 703 nM with HIV-1 (H9/IIIB strain) (setting [3]). For the same compound, in data set [1], the “GI Tract stability” value was 98.18%.
Turning to `CC(C)OC(=O)[C@H](C)OP(=O)(CO[C@H](C)Cn1cnc2c(N)ncnc21)NC1(C(=O)OC(C)C)CC1` (stereo partly drawn) [Example 47, Isopropyl 1-((((((R)-1-(6-amino-9H-purin-9-yl)propan-2-yl)oxy)methyl)(((S)-1-isopropoxy-1-oxopropan-2-yl)oxy)phosphoryl)amino) cyclopropane-1-carboxylate], the figures for the IC50 in the data set on HIV-1 (H9/IIIB strain) (setting [2]) and in the data set on HIV-1 (H9/IIIB strain) (setting [3]) were 91.6 nM and 209 nM, respectively. Moreover, in data set [1], the “GI Tract stability” value was 93.55%.
As for `CC(C)OC(=O)COP(=O)(CO[C@H](C)Cn1cnc2c(N)ncnc21)NC1(C(=O)OC(C)C)CCC1` (stereo partly drawn) [Example 49, Isopropyl 1-((((((R)-1-(6-amino-9H-purin-9-yl)propan-2-yl)oxy)methyl)(2-isopropoxy-2-oxoethoxy)phosphoryl)amino) cyclobutane-1-carboxylate], the IC50 in the data set on HIV-1 (H9/IIIB strain) (setting [2]) worked out at 19.6 nM; in the data set with HIV-1 (H9/IIIB strain) (setting [3]), 37 nM. Besides, the “GI Tract stability” value in data set [1] is on record as 100.50%.
`CC(C)OC(=O)COP(=O)(CO[C@H](C)Cn1cnc2c(N)ncnc21)NC1(C(=O)OC(C)C)CCCCC1` (stereo partly drawn) [Example 51, Isopropyl 1-((((((R)-1-(6-amino-9H-purin-9-yl)propan-2-yl)oxy)methyl)(2-isopropoxy-2-oxoethoxy)phosphoryl)amino) cyclohexane-1-carboxylate]: the IC50 in the data set with HIV-1 (H9/IIIB strain) (setting [2]) is 9.8 nM; in the data set with HIV-1 (H9/IIIB strain) (setting [3]) it was 24.9 nM. Moreover, the “GI Tract stability” value in data set [1] is recorded as 99.70%.
